# Patent US20220387433A1, “TYPE V PHOSPHODIESTERASE INHIBITOR COMPOSITIONS, METHODS OF MAKING THEM AND METHODS OF USING THEM IN PREVENTING OR TREATING ELEVATED PULMONARY VASCULAR PRESSURE OR PULMONARY HEMORRHAGES” (American Regent, Inc., priority 2019, published 2022)
# Test system: horses
# Assay: Target Animal Safety (TAS) study / toxicity of formulations in horses
# Assay type: in vivo
# Conditions: in vivo
# From the text: The drug product vehicle contains about 35-45 wt % alcohol, 46 wt % propylene glycol and 10 wt % WFI. […] Test doses (in horses) with the vehicle confirmed that the dose toxicity was due to the vehicle. More specifically, propylene glycol was believed to be the cause of toxicity.
structure (smiles),measurement,value
"CNC[C@H](O)[C@@H](O)[C@H](O)[C@H](O)CO [meglumine, 1-Deoxy-1-methylaminosorbitol]",Toxicity to horses,non-toxic
